What was measured:
IG-PARP-7 (I631G PARP-7) = molecular target: T1, IG-PARP-7 (I631G PARP-7) (Homo sapiens, UniProt Q7Z3E1, I631G); assay: Labeling by orthogonal NAD+ analogs in HEK 293T lysates expressing GFP-IG-PARP-7 (click with biotin-azide, Streptavidin-HRP); type: biochemical; conditions: HEK 293 T cell lysates, 100 µM NAD+ analog
T1 construct: expressed in transfected cells; host or cells: HEK 293T (lysate)
Text: Identifying the protein targets of PARP-7 is a critical first step toward unraveling its function in cells. In previous work we have developed an engineered enzyme—modified substrate strategy for identifying relevant targets of individual PARP family members ([Carter-O'Connell et al., 2014]; [Carter-O'Connell et al., 2016]; [Carter-O'Connell and Cohen, 2015]; [Carter-O'Connell et al., 2018]). This chemical genetic (CG) method uses engineered PARPs and an orthogonal NAD^+ analogue that contains a clickable handle (e.g. an alkyne) that is located at the N-6 position of the adenine ring (5-Bn-6-a-NAD^+). […] Importantly, 5-Bn-6-a-NAD^+ is not used by wild-type (WT) PARPs and in this way is orthogonal to native NAD^+. […] We therefore sought a new orthogonal NAD^+ analogue that would serve as an efficient substrate for floor position engineered PARP-7, I631G PARP-7 (IG-PARP-7) (Figure 1a).
Figure 1. A chemical genetic strategy for identifying the direct MARylation targets of PARP-7. (a) Schematic of chemical genetic approach for identifying direct targets of PARP-7. (b) Crystal structure of human PARP1 bound to the non-hydrolyzable NAD^+ analog benzamide adenine dinucleotide (BAD). PDB: 6bhv. […] Following copper-catalyzed click chemistry with biotin-azide, proteins were resolved by SDS-PAGE and biotinylated proteins were detected by Western blot detection using Streptavidin-HRP. […]

[1] = molecular target: T2, IG-PARP-12 (I660G PARP-12) (Homo sapiens, UniProt Q9H0J9, I660G); assay: Labeling by orthogonal NAD+ analogs with PARP-12 I660G mutant; type: biochemical; conditions: compared to 5-Bn-6-a-NAD+
T2 construct: GFP; expressed in transfected cells
T2 sequence (Q9H0J9 whole entry I660G): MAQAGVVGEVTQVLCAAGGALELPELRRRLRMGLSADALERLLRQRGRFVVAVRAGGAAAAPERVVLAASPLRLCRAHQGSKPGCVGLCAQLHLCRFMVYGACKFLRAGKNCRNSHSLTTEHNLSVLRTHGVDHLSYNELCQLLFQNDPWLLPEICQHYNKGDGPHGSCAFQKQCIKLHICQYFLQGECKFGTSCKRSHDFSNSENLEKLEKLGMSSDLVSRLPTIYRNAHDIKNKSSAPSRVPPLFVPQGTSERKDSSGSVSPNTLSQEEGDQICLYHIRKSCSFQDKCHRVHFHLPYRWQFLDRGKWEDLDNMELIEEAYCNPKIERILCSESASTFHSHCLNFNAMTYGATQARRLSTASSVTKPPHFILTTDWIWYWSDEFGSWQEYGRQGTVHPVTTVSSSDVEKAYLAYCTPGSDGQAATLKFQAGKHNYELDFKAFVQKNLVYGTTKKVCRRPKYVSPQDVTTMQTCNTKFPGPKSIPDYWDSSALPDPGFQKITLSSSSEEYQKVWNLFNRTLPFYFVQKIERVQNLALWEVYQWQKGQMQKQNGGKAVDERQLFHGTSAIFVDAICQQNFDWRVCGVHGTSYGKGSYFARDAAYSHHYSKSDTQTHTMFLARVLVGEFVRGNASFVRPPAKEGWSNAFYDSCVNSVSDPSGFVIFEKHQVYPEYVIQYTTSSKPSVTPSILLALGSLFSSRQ
Text: Figure 1. A chemical genetic strategy for identifying the direct MARylation targets of PARP-7. (a) Schematic of chemical genetic approach for identifying direct targets of PARP-7. (b) Crystal structure of human PARP1 bound to the non-hydrolyzable NAD^+ analog benzamide adenine dinucleotide (BAD). PDB: 6bhv. […] (c) Chemical structure of the clickable, orthogonal NAD^+ analogs. 5-Bn-2-e-NAD^+ is the optimized substrate for the floor position engineered PARP-7, IG-PARP-7. 5-Bn-6-a-NAD^+ was used in our previous studies by other floor position engineered PARPs (e.g. PARP14). (d) 5-Bn-2-e-NAD^+ is an efficient substrate for IG-PARP-7. HEK293T cells were transfected with either GFP-WT-PARP-7 (control) or GFP-IG-PARP-7. Cell lysates were prepared and incubated with either 5-Bn-2-e-NAD^+ or 5-Bn-6-a-NAD^+ (100 µM). Following copper-catalyzed click chemistry with biotin-azide, proteins were resolved by SDS-PAGE and biotinylated proteins were detected by Western blot detection using Streptavidin-HRP. Biotinylated proteins represent direct MARylation targets of PARP-7. Figure 1—figure supplement 1. Enrichment of PARP-7 MARylation targets and labeling of PARP-12 IG targets using a chemical genetic approach. (a) Labeling of PARP-7 MARylation targets was performed as described in Figure 1. Neutravidin agarose was used to enrich biotinylated proteins (i.e. MARylation targets). […]

PARP1FL = PARP1FL (Homo sapiens, UniProt P09874); assay: ADP-ribosylation plate assay, PARP1FL
Chain of PARP1FL (P09874 whole entry): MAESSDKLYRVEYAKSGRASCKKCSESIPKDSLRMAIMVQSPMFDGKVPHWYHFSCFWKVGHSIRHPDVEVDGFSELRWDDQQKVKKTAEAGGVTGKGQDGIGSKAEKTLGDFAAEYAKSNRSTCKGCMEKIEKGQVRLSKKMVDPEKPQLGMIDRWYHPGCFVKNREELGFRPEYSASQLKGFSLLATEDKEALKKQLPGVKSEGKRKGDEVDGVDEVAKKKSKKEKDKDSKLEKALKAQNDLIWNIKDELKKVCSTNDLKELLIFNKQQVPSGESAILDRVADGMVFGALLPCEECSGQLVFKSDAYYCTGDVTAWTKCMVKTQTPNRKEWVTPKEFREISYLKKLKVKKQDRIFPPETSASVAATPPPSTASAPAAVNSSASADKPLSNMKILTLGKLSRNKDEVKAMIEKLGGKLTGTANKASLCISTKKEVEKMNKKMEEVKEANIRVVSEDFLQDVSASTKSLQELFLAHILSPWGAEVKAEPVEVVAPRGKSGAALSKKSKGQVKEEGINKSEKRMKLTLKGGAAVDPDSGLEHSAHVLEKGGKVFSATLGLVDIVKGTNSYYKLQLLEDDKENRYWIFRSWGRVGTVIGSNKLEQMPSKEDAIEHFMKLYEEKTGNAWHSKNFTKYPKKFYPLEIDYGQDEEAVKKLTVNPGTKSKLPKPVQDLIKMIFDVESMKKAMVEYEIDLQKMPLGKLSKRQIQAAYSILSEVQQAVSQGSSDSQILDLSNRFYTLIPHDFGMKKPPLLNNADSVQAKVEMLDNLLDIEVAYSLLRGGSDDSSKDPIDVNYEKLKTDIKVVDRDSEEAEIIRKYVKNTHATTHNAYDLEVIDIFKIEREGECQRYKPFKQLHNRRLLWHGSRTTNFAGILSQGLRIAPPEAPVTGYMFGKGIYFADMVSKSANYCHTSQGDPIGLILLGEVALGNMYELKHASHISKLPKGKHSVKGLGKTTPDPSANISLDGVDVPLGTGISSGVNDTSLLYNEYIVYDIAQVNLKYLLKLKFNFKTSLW

PARP15cat = molecular target: T3, PARP15cat (Homo sapiens, UniProt Q460N3); assay: ADP-ribosylation plate assay, PARP15cat
T3 sequence (Q460N3 482-678 limits assumed): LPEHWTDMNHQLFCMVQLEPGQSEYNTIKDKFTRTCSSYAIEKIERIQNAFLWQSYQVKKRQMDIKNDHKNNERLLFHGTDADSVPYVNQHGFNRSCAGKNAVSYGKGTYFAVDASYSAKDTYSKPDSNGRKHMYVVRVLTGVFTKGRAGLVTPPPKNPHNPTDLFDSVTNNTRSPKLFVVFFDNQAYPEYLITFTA

PARP14wwe-cat. = molecular target: T4, PARP14wwe-cat. (Homo sapiens, UniProt Q460N5); assay: ADP-ribosylation plate assay, PARP14wwe-cat.
T4 sequence (Q460N5 1523-1801 limits assumed): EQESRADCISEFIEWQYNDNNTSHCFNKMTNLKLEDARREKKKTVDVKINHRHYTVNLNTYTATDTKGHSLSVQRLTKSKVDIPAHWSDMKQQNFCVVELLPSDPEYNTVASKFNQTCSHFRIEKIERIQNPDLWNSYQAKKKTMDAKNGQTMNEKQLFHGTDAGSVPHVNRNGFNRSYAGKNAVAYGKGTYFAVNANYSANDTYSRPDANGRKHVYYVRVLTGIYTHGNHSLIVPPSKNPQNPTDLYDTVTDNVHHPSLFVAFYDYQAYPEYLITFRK

T1 sequence (Q7Z3E1 whole entry I631G): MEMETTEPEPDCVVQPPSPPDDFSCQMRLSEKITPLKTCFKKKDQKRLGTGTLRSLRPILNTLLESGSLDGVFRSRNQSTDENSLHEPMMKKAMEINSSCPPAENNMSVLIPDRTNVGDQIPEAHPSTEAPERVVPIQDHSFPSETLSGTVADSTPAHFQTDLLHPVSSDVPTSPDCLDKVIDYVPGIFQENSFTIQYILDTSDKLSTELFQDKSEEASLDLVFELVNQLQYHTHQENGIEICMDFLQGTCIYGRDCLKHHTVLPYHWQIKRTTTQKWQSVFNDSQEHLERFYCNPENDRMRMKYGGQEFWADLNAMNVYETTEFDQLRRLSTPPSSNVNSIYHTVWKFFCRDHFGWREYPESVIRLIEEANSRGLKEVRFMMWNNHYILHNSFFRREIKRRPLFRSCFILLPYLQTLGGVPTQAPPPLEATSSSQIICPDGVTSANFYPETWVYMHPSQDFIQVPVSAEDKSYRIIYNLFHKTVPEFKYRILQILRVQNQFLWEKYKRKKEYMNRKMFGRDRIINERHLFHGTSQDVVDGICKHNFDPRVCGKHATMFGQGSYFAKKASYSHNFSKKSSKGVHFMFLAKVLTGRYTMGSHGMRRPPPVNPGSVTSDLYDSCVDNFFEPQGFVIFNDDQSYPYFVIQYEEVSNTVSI

| Compound | substrate for floor position engineered PARP-7 (IG-PARP-7) (IG-PARP-7 (I631G PARP-7)) | substrate for IG-PARP-12 [1] | IC50 (PARP1FL) [nM] | IC50 (PARP15cat) [nM] | IC50 (PARP14wwe-cat.) [nM] |
| --- | --- | --- | --- | --- | --- |
| C#Cc1nc(N)c2ncn(C3OC(COP(=O)(O)OP(=O)([O-])OCC4OC([n+]5cc(Cc6ccccc6)cc(C(N)=O)c5)C(O)C4O)C(O)C3O)c2n1 (centres unmarked) [5-Bn-2-e-NAD^+, 5-benzyl-2-ethynyl-NAD^+] | much better substrate | better substrate |  |  |  |
| N#Cc1ccc(N2CCN(C(=O)c3cc(Cc4n[nH]c(=O)c5ccccc45)ccc3F)CC2)nc1 [Phthal01, 6-(4-(2-fluoro-5-((4-oxo-3,4-dihydrophthalazin-1-yl)methyl)benzoyl)piperazin-1-yl)nicotinonitrile] |  |  | 21 | 2000 ± 300 | > 10000 |

From paper PMC7880690, “Chemical genetics and proteome-wide site mapping reveal cysteine MARylation by PARP-7 on immune-relevant protein targets” (eLife, 2021)
